We go through nine molecules from ChEMBL document CHEMBL5096158, “HIV latency reversal agents: A potential path for functional cure?” (Eur J Med Chem, 2021).

Series [1] deals with Human immunodeficiency virus 1. In words: Reactivation of HIV-1 latency in human U1 cells assessed as fold increase in HIV transcription by measuring GFP expression at 2 uM incubated for 24 hrs in presence of PEP005 by flow cytometry. Type of series: functional. For orientation: In flow cytometry, cells or beads pass a laser one at a time.
The test system of series [2] is Human immunodeficiency virus 1. Put plainly: Reactivation of HIV-1 latency in human U1 cells assessed as fold increase in HIV transcription by measuring GFP expression at 6 nM incubated for 24 hrs in presence of JQ1 by flow cytometry. Format: functional.
The subject of series [3] is Human immunodeficiency virus 1. In words: Reactivation of HIV-1 latency in human U1 cells assessed as fold increase in HIV transcription by measuring GFP expression at 6 nM incubated for 24 hrs by flow cytometry. Format: functional.
For series [4], the system named is Human immunodeficiency virus 1. In words: Reversal of HIV-1 latency in human ACH-2 cells assessed as increase in GFP positive cells incubated for 24 hrs by flow cytometry. Format: functional, organism-based, ACH-2 cell line. Particulars: Human immunodeficiency virus 1, ACH-2, 24 h.
Series [5] in a line: Cytotoxicity against human U1 cells assessed as reduction in cell viability incubated for 48 hrs by WST-8 assay. Format: toxicity, cell-based. Background: Tetrazolium assays rely on reduction of a dye to a coloured formazan, in cell work by metabolically active cells.
Series [6] can be described thus: Cytotoxicity against human PBMC cells assessed as reduction in cell viability incubated for 48 hrs by WST-8 assay. Type of series: toxicity, cell-based.
Series [7] is described as follows: Cytotoxicity against human ACH-2 cells assessed as reduction in cell viability incubated for 48 hrs by WST-8 assay. Type of series: toxicity, cell-based.
For series [8], the system named is Human immunodeficiency virus 1. Put plainly: Reactivation of HIV-1 latency infected in GFP-fused human J-Lat C11 cells assessed as increase in GFP expression incubated for 48 hrs by flow cytometry. Type of series: functional, organism-based. The conditions noted are these: Human immunodeficiency virus 1, J-Lat C11, 48 h.
For series [9], the system named is Human immunodeficiency virus 1. Put plainly: Reactivation of HIV-1 latency infected in GFP-fused human J-Lat 10.6 cells assessed as increase in GFP expression incubated for 48 hrs by flow cytometry. Format: functional, organism-based. The conditions noted are these: Human immunodeficiency virus 1, J-Lat 10.6, 48 h.
For series [10], the system named is Human immunodeficiency virus 1. In words: Reactivation of HIV-1 latency infected in GFP-fused human J-Lat C11 cells assessed as increase in GFP expression at 1 to 100000 nM incubated for 48 hrs by flow cytometry. Type of series: functional. The conditions noted are these: dose 1-100000 nM.
Series [11] in a line: Cytotoxicity against human J-Lat 10.6 cells assessed as reduction in cell viability incubated for 72 hrs by CCK-8 assay. Type of series: toxicity, cell-based.
Series [12] has as its system Human immunodeficiency virus 1. Put plainly: Reactivation of HIV-1 latency infected in GFP-fused human J-Lat 10.6 cells assessed as increase in GFP expression at 1 to 100000 nM incubated for 48 hrs by flow cytometry. Type of series: functional. The conditions noted are these: dose 1-100000 nM.
Series [13] in a line: Cytotoxicity against human J-Lat C11 cells assessed as reduction in cell viability incubated for 72 hrs by CCK-8 assay. Format: toxicity, cell-based.
The test system of series [14] is Human immunodeficiency virus 1. In words: Reactivation of HIV-1 latency infected in GFP-fused human J-Lat 9.2 cells assessed as increase in GFP expression at 1 uM incubated for 24 hrs by flow cytometry. Type of series: functional.
The subject of series [15] is Human immunodeficiency virus 1. Put plainly: Reversal of HIV-1 latency in human PBMC from HIV infected donors assessed as increase in p24Gag viral protein level incubated for 24 hrs by ELISA. Format: functional. A general note: An ELISA detects its analyte on a solid surface through an enzyme-linked reagent.
Series [16] in a line: Inhibition of HIV-1 latency infected in human U1 cells assessed as increase in p24 expression level incubated for 48 hrs by ELISA. Particulars: Human immunodeficiency virus 1, U1, 48 h. Type of series: functional, cell-based.
Series [17] deals with Protein kinase C gamma type (Homo sapiens, UniProt P05129). In words: Displacement of 3H-PDBu from recombinant human PKCgamma incubated for 25 mins by scintillation counter analysis.
For series [18], the system named is Human immunodeficiency virus 1. Put plainly: Reversal of HIV-1 latency in human J-Lat 8.4 cells assessed as increase in GFP expression incubated for 24 hrs by flow cytometry. Particulars: Human immunodeficiency virus 1, J-Lat 8.4, 24 h. Type of series: functional, organism-based.
For series [19], the system named is Human immunodeficiency virus 1. In words: Reversal of HIV-1 latency in human J-Lat 10.6 cells assessed as increase in GFP expression incubated for 24 hrs by flow cytometry. Type of series: functional, organism-based. The conditions noted are these: Human immunodeficiency virus 1, J-Lat 10.6, 24 h.
The test system of series [20] is Human immunodeficiency virus 1. In words: Reversal of HIV-1 latency in human J-Lat 9.2 cells assessed as increase in GFP expression incubated for 24 hrs by flow cytometry. Type of series: functional, organism-based. Particulars: Human immunodeficiency virus 1, J-Lat 9.2, 24 h.
The test system of series [21] is Human immunodeficiency virus 1. Put plainly: Reactivation of HIV-1 latency in human J-Lat Tat-GFP Clone A1 cells assessed as increase in GFP expression at 23 pM incubated for 24 hrs by flow cytometry. Format: functional.
Series [22] relates to Human immunodeficiency virus 1. Put plainly: Reactivation of HIV-1 latency in human CD4+ve Th cells assessed as increase in GFP expression at 3 nM incubated for 24 hrs by flow cytometry. Format: functional.
Series [23] relates to Human immunodeficiency virus 1. In words: Reactivation of HIV-1 latency in human J-Lat Tat-GFP Clone A1 cells assessed as increase in GFP expression at 375 pM incubated for 24 hrs by flow cytometry. Format: functional.

pEC50, pKi: −log10 of the molar value.

Turning to `Cc1sc2c(c1C)C(c1ccc(Cl)cc1)=N[C@@H](CC(=O)OC(C)(C)C)c1nnc(C)n1-2`, the “fold change (FC)” value in [1] stood at 250.
As for `C/C=C(\C)C(=O)O[C@H]1C(C)=C[C@]23C(=O)[C@H](C=C(CO)[C@@H](O)[C@]12O)C1C(C[C@H]3C)C1(C)C` (stereo partly specified), the figures for the “fold change (FC)” value in series [2] and in [3] were 250 and 25, respectively.
As a reminder, the pEC50 is the EC50 on a negative log10 scale, so that one unit is a factor of ten. By CC50 is commonly meant the concentration at which the toxic effect on the cells reaches its halfway point. For the molecule `CCCCCCCCCCc1ccc2c(c1)N(C)[C@@H](C(C)C)C(=O)NC(CO)C2` (stereo partly specified), the pEC50 in series [4] was 7.60. For the same molecule, the CC50 at 48 h in series [5] was 61200 nM; in [6], 39900 nM; in [7], 21100 nM.
In the case of `CCCCCCCCCCCC(=O)OCC1=C[C@H]2C(=O)[C@]3(C=C(C)[C@H](OC(=O)CC(C)C(C)C)[C@@]3(O)[C@@H]1O)[C@H](C)CC1C2C1(C)C` (stereo partly specified), the negative logarithm of the EC50 (pEC50) is 8.45 in series [8] and 8.39 in series [9]. In addition, the values for the Activity in series [10] and in [12] were 80% and 90%, respectively. In addition, the values for the 50% cytotoxic concentration (CC50) at 72 h in [11] and in series [13] were 94.2 nM and 68.5 nM, respectively.
On to `CCCc1nc2c(N)nc3ccccc3c2s1`, for which, in series [14], the Activity is 18%.
As for `CO[C@@H](CC[C@H](C)[C@H]1O[C@@]23C[C@H](OC(=O)C[C@H]([C@@H](C)O)OC(=O)C[C@](O)(O2)[C@H](C)CC3(C)C)[C@@H]1C)c1cc(O)ccc1Br` [APLYSIATOXIN], in [15], the Activity turned out to be 56%.
What is called pKi is the negative decadic logarithm of the Ki, by convention in mol/L. For the molecule `CC1=C[C@H]2[C@@]3(O)[C@H](C)C[C@]4(OC(=O)Cc5cccc6ccccc56)[C@H]([C@@H]3C=C(CO)C[C@]2(O)C1=O)C4(C)C`, in series [16], the pEC50 is 7.99. Moreover, the negative-log Ki (pKi) in series [17] was 9.19.
For `CC(=O)O[C@@]12C[C@@H](C)[C@@]3(O)[C@@H](C=C(CO)C[C@]4(O)C(=O)C(C)=C[C@@H]34)[C@@H]1C2(C)C` [PROSTRATIN], the pEC50 in [8] is 6.11; in series [9], 6.06; in series [18], 7.96; in series [19] it was 8.48; in series [16], less than 6.00; in series [20], 7.35.
Regarding `CCCCCC(=O)O[C@H]1C(C)=C[C@]23C(=O)[C@H](C=C(CO)[C@@H](O)[C@]12O)C1C(C[C@H]3C)C1(C)C` (stereo partly specified), the values for the Activity in series [21], in series [22] and in [23] were 20%, 100% and 50%, respectively.
